Data: publication PMC10469688, “Comparative pharmacokinetics and safety evaluation of high dosage regimens of Andrographis paniculata aqueous extract after single and multiple oral administration in healthy participants” (Frontiers in Pharmacology, 2023)
Where two headings read alike, the source gives them in different places.

Tests used:
[1] = Cumulative urinary excretion after single oral administration of A. paniculata aqueous extract capsules in healthy participants; assay type: in vivo, human; settings: for Cumulative urine: urine T 0–48 h
Experimental: (§1) An opened-label, two-dosage, single- and multiple-oral dosing, single center, phase I safety and pharmacokinetic study was conducted in healthy participants while they were under a fasting condition. […] Two weeks prior to the beginning of the clinical study, the volunteers were advised to abstain from other dietary supplements, herbal products, or any concomitant medicines. During the period of the study, no other medications were allowed. All participants fasted overnight for at least 8 h before drug administration. The study conducted a single-dose investigation on day 1 by oral administering A. paniculata extract capsules once in both groups. Twelve participants in group 1 received 3 capsules orally (equivalent to 60 mg of andrographolide) with 240 mL of water, while another twelve participants in group 2 received 6 capsules (equivalent to 120 mg of andrographolide). This was followed by serial blood sampling for up to 24 h after dosing. For blood collection, 6 mL of venous blood in EDTA tube was collected via a forearm vein catheter at each time point including pre-dose (0 h), and post-dose after oral administration (T 0.167, 0.333, 0.5, 0.75, 1, 1.5, 2, 4, 6, 8, 10, 12 and 24 h). Subsequently, observation of elimination continued until 48 h post-dose to ensure complete excretion of the major active diterpenoids through urine. Urine samples were collected at day 0 (the day prior to dosing) and day 1–2 (T 0–4, 4–8, 8–12,12–24, 24–32, 32–40, and 40–48 h after dosing). The study then proceeded to investigate multiple doses in both groups by administering continuous oral doses from day 3 until the morning of day 5. (dosing at T48, 56, 64, 72, 80, 88, and 96 h). In group 1, three capsules were administered orally before meals, three times a day (3 × 3 capsules at 8-h intervals, calculated as 180 mg/day of andrographolide); whereas in group 2, six capsules were administered daily, three times a day (6 × 3 capsules at 8-h intervals, calculated as 360 mg/day of andrographolide). For serial blood sampling of multiple doses, 6 mL of blood samples were collected starting in the morning of day 5 (sampling timepoints T 96, 96.167, 96.333, 96.5, 96.75, 97, 97.5, 98, 100, 102, and 104 h post dose).
(§2) All collected blood samples were centrifuged at 4,000 rpm, 4^οC, for 5 min. Plasma was collected and stored in cryotubes at −70^οC until analysis. Urine was kept as 10 mL aliquot samples at each time point and stored at −70^οC until analysis. Extraction was performed by protein precipitation method as previously reported ([Songvut et al., 2023]). Briefly, 50 µL of either a plasma or urine sample was mixed with 200 µL of methanol containing an internal standard (IS) of digoxin (50 ng/mL). Pretreated samples were vortexed for 10 min and were then centrifuged at 12,000 rpm, 4°C, for 10 min. The supernatants were filtered through a 0.2 µm PVDF membrane and were subsequently transferred to vials for HPLC-MS/MS analysis.
(§3) Hydrolysis of the glucuronidated and sulfated conjugates was conducted by enzymatic incubation as our previous published method ([Songvut et al., 2023]). To analyze the metabolic conjugations, 50 μL of either a plasma or urine sample was pre-incubated at 37^οC with 50 µL of either of β-glucuronidase in sodium phosphate buffer (pH 6.8) for 30 min, or sulfatase in sodium acetate buffer (pH 5) for 2 h. IS (50 ng/mL) was then added along with 150 μL of methanol to precipitate protein. The extracted samples were then vortexed and centrifuged at 12,000 rpm, 4^οC, for 10 min. The supernatants were collected by filtering through a 0.2-µm PVDF membrane before HPLC-MS/MS injection.
(§4) Analysis for the concentrations of targeted compounds in plasma and urine samples were carried out using HPLC-MS/MS at the Laboratory of Pharmacology, Chulabhorn Research Institute, Bangkok, Thailand. The quantitative determination was performed according to a previously validated method ([Songvut et al., 2023]). […]

[2] = Plasma pharmacokinetics after single and multiple oral administration of A. paniculata aqueous extract capsules in healthy participants (HPLC-MS/MS, non-compartmental analysis); assay type: in vivo, human; settings: for CL/F / AUC(0-inf) / AUC(0-t) / MRT / Vd/F / half-life / Tmax / Cmax: human; for CL/F / AUC(0-inf) / AUC(0-t) / MRT / Vd/F / half-life / Tmax: plasma; for AUC(0-inf): read-out: AUC(0-inf); for MRT: read-out: MRT; for Vd/F: read-out: Vd/F; for Tmax: read-out: Tmax; for Cmax: read-out: Cmax
Experimental: as §1, §2, §3, §4

[3] = set-up: method as in Panossian et al., 2000; settings: previous pharmacokinetic studies; ref Panossian et al., 2000; cited from earlier work
[4] = single oral dose equivalent to 60 mg andrographolide, n = 12, mean ± SD
[5] = single oral dose equivalent to 120 mg andrographolide, n = 11, mean ± SD
[6] = multiple oral doses 60 mg × 3 times/day of andrographolide, n = 12, mean ± SD
[7] = multiple oral doses 60 mg × 3 times/day of andrographolide, n = 12, mean ± SD, read-out: AUC(0–8h)
[8] = multiple oral doses 60 mg × 3 times/day of andrographolide, n = 12, median [IQR]
[9] = multiple oral doses 120 mg × 3 times/day of andrographolide, n = 11, mean ± SD
[10] = multiple oral doses 120 mg × 3 times/day of andrographolide, n = 11, mean ± SD, read-out: AUC(0–8h)
[11] = multiple oral doses 120 mg × 3 times/day of andrographolide, n = 11, median [IQR]
[12] = single oral dose equivalent to 60 mg andrographolide, n = 12, mean ± SD, read-out: AUC(0–24h)
[13] = single oral dose equivalent to 60 mg andrographolide, n = 12, median [IQR]
[14] = single oral dose equivalent to 120 mg andrographolide, n = 11, mean ± SD, read-out: AUC(0–24h)
[15] = single oral dose equivalent to 120 mg andrographolide, n = 11, median [IQR]
[16] = multiple oral doses 60 mg × 3 times/day of andrographolide, plasma T 0–8 h, n = 12, mean ± SD
[17] = multiple oral doses 120 mg × 3 times/day of andrographolide, plasma T 0–8 h, n = 11, mean ± SD
[18] = single oral dose equivalent to 60 mg andrographolide, plasma T 0–24 h, n = 12, mean ± SD
[19] = single oral dose equivalent to 120 mg andrographolide, plasma T 0–24 h, n = 11, mean ± SD

| Compound | Cumulative urine [1, 4] | Cumulative urine [1, 5] | CL/F [2, 6] | AUC(0-t) [2, 7] | MRT [2, 6] | Vd/F [2, 6] | half-life [2, 8] | Tmax [2, 8] | CL/F [2, 9] | AUC(0-t) [2, 10] | MRT [2, 9] | Vd/F [2, 9] | half-life [2, 11] | Tmax [2, 11] | CL/F [2, 4] | AUC(0-inf) [2, 4] | AUC(0-t) [2, 12] | MRT [2, 4] | Vd/F [2, 4] | half-life [2, 13] | further results |
| --- | --- | --- | --- | --- | --- | --- | --- | --- | --- | --- | --- | --- | --- | --- | --- | --- | --- | --- | --- | --- | --- |
| C=C1CC[C@@H]2[C@](C)(CO[C@@H]3O[C@H](CO)[C@@H](O)[C@H](O)[C@H]3O)CCC[C@@]2(C)[C@@H]1CCC1=CCOC1=O [Neoandrographolide, neoandrographolide] | 24.0 ± 18.1 µg | 66.7 ± 29.3 µg | 65 mL/min/kg | 69.7 ± 12.9 ng·h/mL | 1.7 ± 0.22 h | 3.4 ± 0.78 L/kg | 0.6 h | 1 h | 71.7 mL/min/kg | 128 ± 29.1 ng·h/mL | 1.9 ± 0.18 h | 1.2 ± 0.29 L/kg | 0.19 h | 1 h | 36.7 mL/min/kg | 41 ± 4.9 ng·h/mL | 41 ± 4.9 ng·h/mL | 1.8 ± 0.33 h | 0.74 ± 0.16 L/kg | 0.23 h | Detectability as conjugated metabolites in plasma ([2]; glucuronide and sulfate derivatives): less detectable; AUC(0-inf) [2, 6]: 69.7 ± 12.9 ng·h/mL; AUC(0-inf) [2, 9]: 128 ± 29.1 ng·h/mL; Tmax [2, 13]: 0.9 h; CL/F [2, 5]: 88.3 mL/min/kg; AUC(0-inf) [2, 5]: 104 ± 22.6 ng·h/mL; AUC(0-t) [2, 14]: 104 ± 22.6 ng·h/mL; MRT [2, 5]: 2.2 ± 0.22 h; Vd/F [2, 5]: 1.5 ± 0.33 L/kg; half-life [2, 15]: 0.19 h; Tmax [2, 15]: 0.8 h; Cmax [2, 16]: 34.8 ± 6.3 ng/mL; Cmax [2, 17]: 60.7 ± 12.2 ng/mL; Cmax [2, 18]: 24.4 ± 5.6 ng/mL; Cmax [2, 19]: 50.4 ± 19.2 ng/mL |
| C=C1CC[C@@H]2[C@](C)(CO)[C@H](O)CC[C@@]2(C)[C@@H]1C/C=C1/C(=O)OC[C@H]1O [Andrographolide, andrographolide] | 372 ± 159 µg | 1,193±553 μg | 75 mL/min/kg | 195 ± 24 ng·h/mL | 4.3 ± 0.99 h | 18 ± 8 L/kg | 2.3 h | 0.65 h | 91.7 mL/min/kg | 345 ± 48.8 ng·h/mL | 3.4 ± 0.45 h | 14.7 ± 3.7 L/kg | 1.7 h | 0.8 h | 81.7 mL/min/kg | 210 ± 25.4 ng·h/mL | 210 ± 25.4 ng·h/mL | 6 ± 0.45 h | 9 ± 1.66 L/kg | 1.3 h | Amount excreted in urine on doubling the oral dose ([1]; 60 vs 120 mg of andrographolide): nearly corresponding doubling; Tmax [3]: 1.36 h; Tmax [2, 13]: 0.8 h; CL/F [2, 5]: 100 mL/min/kg; AUC(0-inf) [2, 5]: 345 ± 63.5 ng·h/mL; AUC(0-t) [2, 14]: 345 ± 63.5 ng·h/mL; MRT [2, 5]: 5.3 ± 0.63 h; Vd/F [2, 5]: 10.8 ± 1.6 L/kg; half-life [2, 15]: 1.2 h; Tmax [2, 15]: 0.8 h; Cmax [2, 16]: 85.9 ± 19 ng/mL; Cmax [2, 17]: 172 ± 54.4 ng/mL; Cmax [2, 18]: 72.1 ± 28.7 ng/mL; Cmax [2, 19]: 112 ± 33.4 ng/mL |
